For 19 compounds, IC50, AC50 and Viability results are on record in US20240409536A1, “COMPOUNDS AND METHODS FOR MODULATING SPLICING” (REMIX THERAPEUTICS INC., priority 2021, published 2024).

Molecules are shown by their SMILES.

Data set [1] deals with MYB mRNA. The experiment in a line: Gene panel canonical junction qPCR assay, MYB CJ mRNA decrease. Format: cell-based, human. The note with it: Homo sapiens, canonical junction qPCR, read-out: MYB IC50 (decrease in CJ mRNA levels). A digest of the protocol:
(§1)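 A673 or K562 cells treated with compound; canonical exon-exon junction mRNA quantified by cDNA synthesis and RT-qPCR with junction-spanning primer/probe, normalized to GAPDH, GUSB or PPIA and DMSO (2^(−ΔΔCt)). Percent response from set ΔCt assay windows fitted to 4-parameter logistic; IC50 for CJ decrease.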

The next data set deals with HTT mRNA. The experiment in a line: Gene panel canonical junction qPCR assay, HTT CJ mRNA decrease. Format: cell-based, human. The note with it: Homo sapiens, canonical junction qPCR, read-out: HTT IC50 (decrease in CJ mRNA levels). A digest of the protocol: as §1
On the technique in general: Real-time PCR tracks product formation cycle by cycle.

Data set [2] deals with MYB mRNA. Put plainly: Splicing RT-qPCR assay, MYB canonical (CJ) and alternative (AJ) junction mRNA. Format: cell-based. The note with it: Homo sapiens, A673 or K562 cells, 24 hours; for IC50: decrease in canonical junction mRNA; for AC50: increase in alternative junction mRNA. A digest of the protocol: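 A673 (DMEM/10% FBS, plated 24 h before dosing) or K562 (IMDM/10% FBS) cells treated 24 h at 37 °C with 11-point 3-fold dilutions, top final 10 uM, DMSO ≤0.25%. Lysates analysed by one-step RT-qPCR for CJ and AJ isoforms, normalized to GAPDH/GUSB (K562) or PPIA (A673).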

A further data set relates to K562 cells. The experiment in a line: Cell Titer Glo 2.0 cell viability assay in K562 cells. To be noted: 72 hours.

Protocol for K562 cells: Compounds described herein were screened for toxicity in K562 (human chronic myelogenous leukemia) and SH-SY5Y (human neuroblastoma) cells using a Cell Titer Glo 2.0 assay.
Cells were plated at 500 cells/well (K562 cells) in 45 μL of IMDM supplemented with 10% FBS in a 384-well opaque plate. Wells containing only medium were used as a blank control. Test compounds (e.g., compounds of Formula (I), (II), or (III)) were first serially diluted in DMSO then diluted 1:100 with IMDM+10% FBS. The final concentration of DMSO was 0.1% in each well. The cells were incubated for 72 hours at 37° C. and 5% CO2 before assaying with Cell Titer Glo 2.0 reagent.

As for `Cc1cnc2c(C(=O)Nc3cc(F)c4nc(C)cn4c3)ccc(N3CCC(N(C)C)CC3)c2n1` [Compound 208, 8-[4-(dimethylamino)piperidin-1-yl]-N-{8-fluoro-2-methylimidazo[1,2-a]pyridin-6-yl}-2-methylquinoxaline-5-carboxamide; bis(trifluoroacetic acid)], the IC50 with MYB mRNA [1] was less than 0.1 µM; in the data set with HTT mRNA, 1 to 10 µM; with MYB mRNA [2] it was less than 0.1 µM. For the same compound, the AC50 in the data set on MYB mRNA [2] is less than 0.1 µM. In addition, the Viability result with K562 cells is given as “A (A represents <100 nM)”.

For `Cc1ccc2c(N3C[C@@H](C)N[C@@H](C)C3)ccc(C(=O)Nc3cc(F)c4nc(C)cn4c3)c2n1` [Compound 214, 5-[(3R,5S)-3,5-dimethylpiperazin-1-yl]-N-{8-fluoro-2-methylimidazo[1,2-a]pyridin-6-yl}-2-methylquinoline-8-carboxamide], the IC50 in the data set with MYB mRNA [1] was less than 0.1 µM; in the data set with HTT mRNA, 0.1 to 1 µM; in the data set with MYB mRNA [2] it was less than 0.1 µM. The half-maximal activity concentration (AC50) in the data set with MYB mRNA [2] is 0.1 to 1 µM. The Viability entry in the data set on K562 cells is reported as “B (B represents 100-1000 nM)”.

Take `Cc1ccc2c(N3CCC(N(C)C)CC3)ccc(C(=O)Nc3cc(F)c4nc(C)cn4c3)c2n1` [Compound 215, 5-[4-(dimethylamino)piperidin-1-yl]-N-{8-fluoro-2-methylimidazo[1,2-a]pyridin-6-yl}-2-methylquinoline-8-carboxamide]: the IC50 with MYB mRNA [1], with HTT mRNA and in the data set on MYB mRNA [2] was 0.1 to 1 µM throughout. Besides, the AC50 with MYB mRNA [2] lay in the range of 0.1 to 1 µM. The Viability result in the data set with K562 cells is on record as “B (B represents 100-1000 nM)”.

As to `Cc1cnc2c(N3C[C@@H](C)N[C@@H](C)C3)ccc(C(=O)Nc3cc(F)c4nc(C)cn4c3)c2n1` [Compound 216, 8-((3R,5S)-3,5-dimethylpiperazin-1-yl)-N-{8-fluoro-2-methylimidazo[1,2-a]pyridin-6-yl}-3-methylquinoxaline-5-carboxamide], the figures for the IC50 in the data set on MYB mRNA [1], in the data set on HTT mRNA and with MYB mRNA [2] were 0.1 to 1 µM, 1 to 10 µM and 0.1 to 1 µM, respectively. Also, in the data set with MYB mRNA [2], the AC50 is less than 0.1 µM. The Viability entry in the data set on K562 cells was “C (C represents 1000-9999 nM)”.

For the compound `Cc1cn2cc(NC(=O)c3ccc(N4CCNC5(CC5)C4)c4nccnc34)cc(F)c2n1` [Compound 218, 8-{4,7-diazaspiro[2.5]octan-7-yl}-N-{8-fluoro-2-methylimidazo[1,2-a]pyridin-6-yl}quinoxaline-5-carboxamide], the IC50 with MYB mRNA [1] is less than 0.1 µM; in the data set on HTT mRNA it was greater than 10 µM; in the data set with MYB mRNA [2], less than 0.1 µM. The compound further yielded an AC50 in the data set on MYB mRNA [2] of less than 0.1 µM. For the same compound, in the data set on K562 cells, the Viability entry is given as “B (B represents 100-1000 nM)”.

As to `Cc1cn2cc(NC(=O)c3ccc(N4CC(C)(C)NC(C)(C)C4)c4nccnc34)cc(F)c2n1` [Compound 219, N-{8-fluoro-2-methylimidazo[1,2-a]pyridin-6-yl}-8-(3,3,5,5-tetramethylpiperazin-1-yl)quinoxaline-5-carboxamide], the 50% inhibitory concentration (IC50) in the data set with MYB mRNA [1] is less than 0.1 µM; with HTT mRNA, 1 to 10 µM; with MYB mRNA [2], less than 0.1 µM. Further, in the data set on MYB mRNA [2], the AC50 was less than 0.1 µM. In addition, in the data set on K562 cells, the Viability entry is recorded as “A (A represents <100 nM)”.

As to `Cc1cn2cc(NC(=O)c3ccc(N4CCNC(C)(C)C4)c4nccnc34)cc(F)c2n1` [Compound 220, 8-(3,3-dimethylpiperazin-1-yl)-N-{8-fluoro-2-methylimidazo[1,2-a]pyridin-6-yl}quinoxaline-5-carboxamide], the IC50 in the data set with MYB mRNA [1] was less than 0.1 µM; in the data set on HTT mRNA it was 1 to 10 µM; with MYB mRNA [2] it was less than 0.1 µM. The compound also returned an AC50 with MYB mRNA [2] of less than 0.1 µM. Also, the Viability entry in the data set on K562 cells is recorded as “A (A represents <100 nM)”.

Turning to `CCNC1CCN(c2ccc(C(=O)Nc3cc(F)c4nc(C)sc4c3)c3nnccc23)CC1` [Compound 221, 5-[4-(ethylamino)piperidin-1-yl]-N-(4-fluoro-2-methyl-1,3-benzothiazol-6-yl)cinnoline-8-carboxamide], the IC50 in the data set with MYB mRNA [1], in the data set on HTT mRNA and with MYB mRNA [2] was 1 to 10 µM throughout. The half-maximal activity concentration (AC50) with MYB mRNA [2] is 1 to 10 µM. Moreover, in the data set with K562 cells, the Viability entry is recorded as “B (B represents 100-1000 nM)”.

With `COc1cnc2c(C(=O)Nc3cc(F)c4nc(C)cn4c3)ccc(N3C[C@@H](C)N[C@@H](C)C3)c2n1` [Compound 223], the IC50 was less than 0.1 µM in the data set on MYB mRNA [1], 0.1 to 1 µM with HTT mRNA and less than 0.1 µM with MYB mRNA [2]. In the data set on MYB mRNA [2], this compound came in with a concentration at half-maximal activity (AC50) of less than 0.1 µM. Also, the Viability entry in the data set with K562 cells is “B (B represents 100-1000 nM)”.

For `COc1cnc2c(C(=O)Nc3cc(F)c4nc(C)cn4c3)ccc(N3CCNCC3)c2n1` [Compound 225, N-{8-fluoro-2-methylimidazo[1,2-a]pyridin-6-yl}-2-methoxy-8-(piperazin-1-yl)quinoxaline-5-carboxamide], the values for the IC50 in the data set with MYB mRNA [1], in the data set on HTT mRNA and in the data set with MYB mRNA [2] were less than 0.1 µM, greater than 10 µM and less than 0.1 µM, respectively. This compound also showed an AC50 in the data set with MYB mRNA [2] of 0.1 to 1 µM. Further, in the data set with K562 cells, the Viability result is “C (C represents 1000-9999 nM)”.

Regarding `Cc1cn2cc(NC(=O)c3ccc(N4CCN(CCF)C5(CC5)C4)c4nccnc34)cc(F)c2n1` [Compound 370], the IC50 in the data set on MYB mRNA [1] was 1 to 10 µM; with HTT mRNA, greater than 10 µM; in the data set on MYB mRNA [2], 1 to 10 µM. This compound also came in with a concentration at half-maximal activity (AC50) in the data set on MYB mRNA [2] greater than 10 µM. The Viability result in the data set with K562 cells is “D (D represents greater than 10 μM in K562 cells)”.

Turning to `Cc1cn2cc(NC(=O)c3ccc(C4CCNCC4)c4nccnc34)cc(F)c2n1` [Compound 371], the IC50 in the data set with MYB mRNA [1], in the data set on HTT mRNA and in the data set with MYB mRNA [2] was 0.1 to 1 µM throughout. In the data set with MYB mRNA [2], this compound yielded an AC50 of less than 0.1 µM. Further, in the data set on K562 cells, the Viability entry was “A (A represents <100 nM)”.

Turning to `Cc1cn2cc(NC(=O)c3ccc(N4CCNC5(COC5)C4)c4nccnc34)cc(F)c2n1` [Compound 372], the figures for the IC50 with MYB mRNA [1], with HTT mRNA and in the data set on MYB mRNA [2] were 1 to 10 µM, greater than 10 µM and 1 to 10 µM, respectively. The AC50 in the data set with MYB mRNA [2] lay within 1 to 10 µM. Besides, the Viability entry with K562 cells is “C (C represents 1000-9999 nM)”.

`Cc1cn2cc(NC(=O)c3ccc(N4CCNC5(CCOC5)C4)c4nccnc34)cc(F)c2n1` (centres unmarked) [Compound 373]: the IC50 is 0.1 to 1 µM in the data set with MYB mRNA [1], greater than 10 µM in the data set with HTT mRNA and 0.1 to 1 µM with MYB mRNA [2]. In the data set on MYB mRNA [2], this compound showed an AC50 of 1 to 10 µM. In addition, the Viability entry in the data set on K562 cells is given as “B (B represents 100-1000 nM)”.

With `Cc1cn2cc(NC(=O)c3ccc(N4CCNC5(CCOCC5)C4)c4nccnc34)cc(F)c2n1` [Compound 374], the IC50 with MYB mRNA [1] is 0.1 to 1 µM; in the data set with HTT mRNA it was 1 to 10 µM; with MYB mRNA [2], 0.1 to 1 µM. In addition, the AC50 in the data set with MYB mRNA [2] was 0.1 to 1 µM. For the same compound, the Viability result in the data set with K562 cells was “B (B represents 100-1000 nM)”.

Turning to `Cc1cn2cc(NC(=O)c3ccc(C4CCNC5(CC5)C4)c4nccnc34)cc(F)c2n1` (centres unmarked) [Compound 375], the results for the IC50 in the data set on MYB mRNA [1], with HTT mRNA and in the data set on MYB mRNA [2] were 0.1 to 1 µM, 1 to 10 µM and 0.1 to 1 µM, respectively. Moreover, the half-maximal activity concentration (AC50) in the data set with MYB mRNA [2] was in the range of 0.1 to 1 µM. In the data set on K562 cells, the Viability entry is recorded as “B (B represents 100-1000 nM)”.

With `Cc1cn2cc(NC(=O)c3ccc(N4C[C@@H](C)NC5(CC5)C4)c4nccnc34)cc(F)c2n1` [Compound 376], the IC50 in the data set with MYB mRNA [1] was 0.1 to 1 µM; in the data set on HTT mRNA, greater than 10 µM; in the data set on MYB mRNA [2], 0.1 to 1 µM. Besides, the AC50 in the data set with MYB mRNA [2] fell in the range of 0.1 to 1 µM. Moreover, the Viability result with K562 cells was “B (B represents 100-1000 nM)”.

For `Cc1cn2cc(NC(=O)c3ccc(N4C[C@H](C)NC5(CC5)C4)c4nccnc34)cc(F)c2n1` [Compound 377], the values for the IC50 with MYB mRNA [1], in the data set on HTT mRNA and in the data set on MYB mRNA [2] were less than 0.1 µM, 1 to 10 µM and less than 0.1 µM, respectively. For the same compound, the AC50 with MYB mRNA [2] is less than 0.1 µM. In addition, in the data set on K562 cells, the Viability entry is “B (B represents 100-1000 nM)”.

For the compound `COc1ncc2c(N3C[C@@H](C)N[C@@H](C)C3)ccc(C(=O)Nc3cn4cc(C)nc4c(OC)n3)c2n1` [Compound 378], the IC50 is less than 0.1 µM in the data set with MYB mRNA [1], 0.1 to 1 µM with HTT mRNA and less than 0.1 µM in the data set with MYB mRNA [2]. The same compound gave an AC50 with MYB mRNA [2] of less than 0.1 µM. The Viability result in the data set with K562 cells is listed as “A (A represents <100 nM)”.

By IC50 is commonly meant the concentration that inhibits the measured activity by half. For orientation: AC50 means the concentration at which the activity in the assay is half-maximal. A high value points to activity only at high concentration.
